Data published in publication PMC5658362 (Scientific Reports, 2017).
“Also recorded” adds a separate entry of the source. Counter-ions that a name gives are not always drawn.

What was measured:
ΔtlpC H. pylori PMSS1 = assay: Swimming behaviour (direction change) chemotaxis assay, ΔtlpC mutant; format: cell-based, Helicobacter pylori
McpP = system: McpP; design: method as in PMID 26048936; settings: P. aeruginosa sCACHE receptor McpP; cited from earlier work
TlpC LBD native = TlpC LBD native (Helicobacter pylori, UniProt O24911); assay: ITC titration of TlpC LBD with ligand; format: binding; settings: for heat release or absorption on titration (binding): 5 mM ligand into 10 µM protein
Experimental: (§1) The expression vectors for single-point variants of TlpC LBD in which S104, Y151, K153, N213, I218 or Y285 were replaced by alanine, and Y249 by phenylalanine, were prepared from a TlpC-expressing plasmid described previously. This plasmid expresses codon-optimised H. pylori 26695 TlpC LBD consisting of amino acid residues 34–297 (Fig. 1a). Mutants were created using the QuikChange Mutagenesis Kit (Stratagene). TlpC LBD and its variants were expressed and purified following the previously published procedure.
(§2) Measurements were performed on a MicroCal VP-ITC instrument microcalorimeter (MicroCal) at 25 °C. […] The data was fitted to a single-site binding model using non-linear least-squares regression (Origin 7, OriginLab, USA), yielding the binding enthalpy ∆H, dissociation constant K D, and binding entropy […]. Each experiment was repeated three times.

TlpC LBD I218A = target: T1, TlpC LBD I218A (Helicobacter pylori, UniProt O24911, I218A); assay: ITC titration of TlpC LBD variant with lactate; format: binding
T1 sequence (O24911 34-297 I218A): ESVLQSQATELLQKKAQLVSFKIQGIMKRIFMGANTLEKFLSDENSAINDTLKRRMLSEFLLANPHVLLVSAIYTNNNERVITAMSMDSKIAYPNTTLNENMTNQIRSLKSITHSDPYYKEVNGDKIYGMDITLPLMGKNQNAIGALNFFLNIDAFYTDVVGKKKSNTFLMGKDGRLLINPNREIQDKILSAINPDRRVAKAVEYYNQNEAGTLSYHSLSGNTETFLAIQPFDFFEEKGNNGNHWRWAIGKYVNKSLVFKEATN
Experimental: as §1, §2

TlpC LBD K153A = target: T2, TlpC LBD K153A (Helicobacter pylori, UniProt O24911, K153A); assay: ITC titration of TlpC LBD variant with lactate; format: binding
T2 sequence (O24911 34-297 K153A): T1 sequence (O24911 34-297 I218A)
Experimental: as §1, §2

TlpC LBD N213A = target: T3, TlpC LBD N213A (Helicobacter pylori, UniProt O24911, N213A); assay: ITC titration of TlpC LBD variant with lactate; format: binding
T3 sequence (O24911 34-297 N213A): T1 sequence (O24911 34-297 I218A)
Experimental: as §1, §2

TlpC LBD S104A = target: T4, TlpC LBD S104A (Helicobacter pylori, UniProt O24911, S104A); assay: ITC titration of TlpC LBD variant with lactate; format: binding
T4 sequence (O24911 34-297 S104A): T1 sequence (O24911 34-297 I218A)
Experimental: as §1, §2

TlpC LBD Y151A = target: T5, TlpC LBD Y151A (Helicobacter pylori, UniProt O24911, Y151A); assay: ITC titration of TlpC LBD variant with lactate; format: binding
T5 sequence (O24911 34-297 Y151A): T1 sequence (O24911 34-297 I218A)
Experimental: as §1, §2

TlpC LBD = target: T6, TlpC LBD (Helicobacter pylori, UniProt O24911); assay: ITC titration of TlpC LBD variant with lactate; format: binding; settings: text prints Y285A substitution
T6 sequence (O24911 34-297 Y285F): T1 sequence (O24911 34-297 I218A)

[1] = system: wild-type H. pylori PMSS1; assay: Swimming behaviour (direction change) chemotaxis assay, wild type; format: cell-based, Helicobacter pylori
H. pylori = settings: cited from earlier work

**Q.** With `c1ccc(-c2ccccn2)nc1` [dipyridyl] as the compound, how does the “chemotaxis response (attractant)” value (ΔtlpC H. pylori PMSS1; 50 μM dipyridyl) read?
**A.** retained chemotaxis responses

**Q.** Which “binding to McpP” value (McpP) does the source give for `CCC(=O)O` [propionate] here?
**A.** binds

**Q.** With `CC(O)C(=O)O` (centres unmarked) [lactate] as the compound, how does the “Enthalpy, ∆H” value (TlpC LBD native; native TlpC LBD) read?
**A.** −21,323.3 ± 713.0 cal/mol

**Q.** What about the “Entropy, ∆S” value (TlpC LBD native; native TlpC LBD) of the same compound?
**A.** −54.1 ± 2.0 cal/mol/degree

**Q.** What about the “Enthalpy, ∆H” value (TlpC LBD I218A) of the same compound?
**A.** −18,145.0 ± 49.0 cal/mol

**Q.** And the “Entropy, ∆S” value (TlpC LBD I218A)?
**A.** −49.4 ± 0.2 cal/mol/degree

**Q.** What about the “Enthalpy, ∆H” value (TlpC LBD K153A) of the same compound?
**A.** −12,730 ± 345.0 cal/mol

**Q.** What about the “Entropy, ∆S” value (TlpC LBD K153A) of the same compound?
**A.** −27.5 ± 1.0 cal/mol/degree

**Q.** And the “effect of substitution on lactate binding” value (TlpC LBD N213A)?
**A.** abolished the binding

**Q.** And the “Enthalpy, ∆H” value (TlpC LBD S104A)?
**A.** −13,105 ± 318.0 cal/mol

**Q.** What about the “Entropy, ∆S” value (TlpC LBD S104A) of the same compound?
**A.** −28.2 ± 1.0 cal/mol/degree

**Q.** What about the “Enthalpy, ∆H” value (TlpC LBD Y151A) of the same compound?
**A.** −12,040 ± 250.2 cal/mol

**Q.** And the “Entropy, ∆S” value (TlpC LBD Y151A)?
**A.** −24.1 ± 1.0 cal/mol/degree

**Q.** And the “effect of substitution on lactate binding” value (TlpC LBD)?
**A.** abolished the binding

**Q.** What about the “chemotactic (attractant) response, direction changes in 3 s” value (shortened to “chemotactic … direction changes in 3 s”) ([1]; 0.1 mM lactate) of the same compound?
**A.** significant response; also recorded: strongest

**Q.** And the “chemotactic … direction changes in 3 s” value ([1]; 1.0 mM lactate)?
**A.** detectable

**Q.** What about the “chemotactic … direction changes in 3 s” value ([1]; 10 mM lactate) of the same compound?
**A.** not detectable; also recorded: did not elicit a positive chemotactic response

**Q.** What about the “chemotactic … direction changes in 3 s” value ([1]; concentrations higher than 0.1 mM) of the same compound?
**A.** lost the response

**Q.** What about the “optimal concentration at which lactate is sensed as attractant” value ([1]; order of magnitude, tested 0.1-10 mM) of the same compound?
**A.** 0.1 mM

**Q.** What about the “chemotactic response to lactate” value (ΔtlpC H. pylori PMSS1; all tested concentrations (0.1, 1, 10 mM)) of the same compound?
**A.** abolished the chemotactic response; also recorded: drastically reduced

**Q.** And the Kd (McpP)?
**A.** 107 µM

**Q.** What about the “concentration with inhibitory effect on H. pylori growth” value (H. pylori) of the same compound?
**A.** ≥ 10 mM

**Q.** What about the “inhibitory effect on H. pylori viability among tested SCFA” value (H. pylori; short chain fatty acids secreted by LAB) of the same compound?
**A.** strongest inhibitory effect

**Q.** With `CC(=O)O` [acetate] as the compound, how does the “binding to McpP” value (McpP) read?
**A.** binds

**Q.** Which “heat release or absorption on titration (binding)” value (“heat release or absorption” below) (TlpC LBD native) does the source give for `O=C(O)CC(O)C(=O)O` (centres unmarked) [malate] here?
**A.** no significant heat release or absorption

**Q.** For `Cl` [HCl], which “chemotaxis response (repellent)” value (ΔtlpC H. pylori PMSS1; 10 mM HCl) is on record?
**A.** retained chemotaxis responses

**Q.** For `O=C(O)CC(=O)C(=O)O` [oxaloacetate], which “heat release or absorption” value (TlpC LBD native) is on record?
**A.** no significant heat release or absorption

**Q.** With `CC(=O)C(=O)O` [pyruvate] as the compound, how does the “heat release or absorption” value (TlpC LBD native) read?
**A.** no significant heat release or absorption

**Q.** What about the “binding to McpP” value (McpP) of the same compound?
**A.** binds
